For orientation: Ki means the equilibrium dissociation constant of an inhibitor or competing ligand from its target.

The values that follow come from patent US20240199618A1, “NOVEL N-ACYL-[3-SUBSTITUTED]-[8-SUBSTITUTED]-5,6-DIHYDRO-[1,2,4]TRIAZOLO[4,3-a]PYRAZINES AS SELECTIVE NK-3 RECEPTOR ANTAGONISTS, PHARMACEUTICAL COMPOSITION, METHODS FOR USE IN NK-3 RECEPTOR-MEDIATED DISORDERS” (Ogeda SA, priority 2013, published 2024).

Read-outs that look alike come from different tables or passages of the source. Bounds are passed on as bounds.

Test [1] relates to body temperature (pyrogenic response to feeding). The experiment in a line: Thermoregulation in OVX ewes. The class given is in vivo, ewe. As to conditions: 1 mg/kg intravenous bolus. From the text: In Vivo Assay in OVX Ewes-Activity in Thermoregulation Experimental Methods: Evaluation of Thermoregulation in OVX Ewe […] After 4 months recovery, animals were acclimatised to housing in single pens for a period of 7 days with ad libitum access to water and […] lucerne hay. One day prior to experimentation, the animals received a jugular vein cannula ([…], Tuta Laboratories, Lane Cove, Australia). The cannulo were kept patent with heparinised saline. On the day of the experiment, compound n^o 5 of the present invention was formulated in physiological saline with 9% 2-hydroxypropyl-β-cyclodextrin at a concentration of 2 mg/mL. […] Animals were fed at 12 h00. Rectal temperatures were monitored with a probe at hourly intervals throughout the experiment, starting at 7 h40 and concluding at 15 h40.

Test [2] has as its system plasma testosterone. Description: Plasma testosterone in gonad intact male rats. The class given is in vivo, rat. Particulars: 3 mg/kg oral, vs vehicle, FIG. 1. As to the method: Effect of Compounds of the Invention on Plasma Testosterone in Gonad Intact Male Rats
The study was designed to evaluate the effect of compounds of the invention on testosterone circulating levels following oral administration at 3 mg/kg on SD gonad intact male rats.
Briefly the experimental methods used for this study were as follows:
Two groups of non-fasted rats (male, Sprague-Dawley, 200 to 225 g; n=4 rats/group) with jugular vein cannulation, were dosed via a single oral administration of compounds of the invention at 3 mg/kg. The control group was dosed with the vehicle. Compounds of the invention were prepared in a dose formulation of pyrogen-free water with 0.5% methylcellulose. Blood samples were collected via the catheter implanted in the jugular vein at pre-determined intervals using EDTA-3K as anti-coagulant. Samples were chilled and rapidly processed by centrifugation to obtain corresponding plasma samples. Testosterone hormone levels were determined by RIA performed on plasma samples collected for all the groups at 5 minutes before administration (basal time), and at 45, 90, 150, 300, 480 minutes and 24 hours after dosing.

The test system of test [3] is hot flashes in postmenopausal women. Description: Phase 2a clinical trial, menopausal hot flashes. The class given is in vivo, human. The protocol:
Clinical Evaluation of compound n^o 5 for the Treatment of Menopausal Hot Flashes Objectives: The study objective is to evaluate the effect of compound n^o 5 on the severity and frequency of hot flashes in postmenopausal women. Design and Setting: The Phase 2a clinical trial was conducted in 80 patients, divided over 2 treatment groups of 40 patients each. […] The Phase 2a trial was double blind and randomized. This Phase 2a trial was conducted on healthy menopausal women (40-65 y) experiencing at least 49 moderate or severe hot flashes or night sweats over a period of 7 consecutive days in the screening period (maximum of 4 weeks). The study was conducted on an ambulatory basis where patients were asked to visit the clinical site on the first day of dosing and at weeks 4, 8, 12 during the treatment period with a follow-up visit 2-3 weeks after conclusion of dosing. Hot flashes were to be reported daily in the morning and the evening using an electronic diary tool. These reported events were used to calculate the Hot Flash Frequency and the Hot Flash Score. The weekly number of hot flashes was calculated in two ways: cumulatively for all severity grades, and cumulatively but leaving out the number of mild hot flashes. Hot Flash Frequencies were calculated for weeks 4 and 12. The Hot Flash Score (HFS) is a composite score combining both frequency and severity. This score is an accepted method to assess the overall severity of the hot flash burden and is calculated weekly. The score is a general measure of the number and severity of all hot flashes occurred during a given time period. The Hot Flash Score (based on severity and frequency) is calculated as follows: • day-score=(number of mild hot flashes/day×1)+(number of moderate hot flashes/day×2)+(number of severe hot flashes/day×3) • The weekly hot flash score is calculated: […] Higher scores indicate worse symptoms.

The target of test [4] is human NK-3 receptor (Homo sapiens (Human), UniProt P29371). Description: 3H-SB222200 binding competition assay with human NK-3 receptor. The gist of the method:
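Membranes from CHO cells stably expressing the receptor were incubated with 5 nM 3H-SB222200 and varying compound concentrations in HEPES 25 mM/NaCl 0.1 M/CaCl2 1 mM/MgCl2 5 mM/BSA 0.5%/saponin 10 μg/ml, pH 7.4. Bound radioligand was quantified as membrane-associated radioactivity after filtration.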

Test [5] deals with human NK-1 receptor (Homo sapiens (Human), UniProt P25103). The experiment in a line: Selectivity assay: [3H] substance P binding, human NK-1 receptor. Particulars: 2 nM [3H] substance P, CHO membranes; read-out: hNK-1 (Ki). The gist of the method: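 Competition binding on membranes from CHO cells expressing human NK-1 receptor, using 2 nM [3H] substance P in 50 mM Tris/5 mM MnCl2/150 mM NaCl/0.1% BSA, pH 7.4, with increasing compound concentrations. Incubated 60 min at 25 °C; bound radioactivity measured after filtration.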
human NK-1 receptor, sequence (P25103 whole entry): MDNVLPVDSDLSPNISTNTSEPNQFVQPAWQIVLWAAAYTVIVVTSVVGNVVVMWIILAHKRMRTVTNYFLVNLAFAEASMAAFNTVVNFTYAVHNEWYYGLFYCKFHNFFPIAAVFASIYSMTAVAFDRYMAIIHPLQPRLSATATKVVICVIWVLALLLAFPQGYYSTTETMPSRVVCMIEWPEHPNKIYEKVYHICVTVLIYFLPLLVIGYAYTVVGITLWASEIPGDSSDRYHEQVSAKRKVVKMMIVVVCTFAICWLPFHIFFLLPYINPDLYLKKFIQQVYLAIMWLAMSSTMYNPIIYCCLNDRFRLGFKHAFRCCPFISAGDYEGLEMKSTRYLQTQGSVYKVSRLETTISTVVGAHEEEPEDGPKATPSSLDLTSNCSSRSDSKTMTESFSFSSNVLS

The mark [6] stands for this setting: 90 mg BID, postmenopausal women.
[7] abbreviates: Baseline, 90 mg BID group, moderate and severe hot flashes.

human NK-3 receptor, sequence (P29371 whole entry): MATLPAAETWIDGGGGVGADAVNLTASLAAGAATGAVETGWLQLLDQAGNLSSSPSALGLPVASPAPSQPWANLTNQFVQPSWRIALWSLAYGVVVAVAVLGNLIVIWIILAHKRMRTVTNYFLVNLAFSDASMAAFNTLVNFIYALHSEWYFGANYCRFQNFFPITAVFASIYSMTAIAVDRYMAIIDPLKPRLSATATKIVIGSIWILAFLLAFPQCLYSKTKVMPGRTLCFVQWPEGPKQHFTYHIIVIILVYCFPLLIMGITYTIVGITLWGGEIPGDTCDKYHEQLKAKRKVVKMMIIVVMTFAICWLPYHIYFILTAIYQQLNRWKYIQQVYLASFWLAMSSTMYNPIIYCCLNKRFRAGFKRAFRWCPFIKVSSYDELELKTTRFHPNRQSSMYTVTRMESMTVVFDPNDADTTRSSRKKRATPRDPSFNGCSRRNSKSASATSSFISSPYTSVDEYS

Consider `Cc1nsc(-c2nnc3n2CCN(C(=O)c2ccc(F)cc2)[C@@H]3C)n1` [Compound 5, (R)-(4-fluorophenyl)(8-methyl-3-(3-methyl-1,2,4-thiadiazol-5-yl)-5,6-dihydro-[1,2,4]triazolo[4,3-a]pyrazin-7(8H)-yl)methanone], for which, in test [1], the “pyrogenic response to feeding” value is reported as “not observed”. In addition, in test [1] (after feeding at 12 h00, mean±SEM), the “body temperature at the 12 h40 time point” value amounted to 38.9±0.2 °C. Besides, the plasma testosterone level result in test [2] is on record as “significantly suppressed”. Further, in test [3] (setting [6]), the “Frequency of hot flashes in comparison of placebo” value is “significantly reduced”. For the same molecule, the “Score of hot flashes in comparison of placebo” value in test [3] (setting [6]) is “significantly reduced”. Also, the “Hot Flash Score (mean)” value is recorded as 29.08 in test [3] (setting [7]); 2.96 in test [3] (Week 4, 90 mg BID oral); 1.70 in test [3] (Week 12, 90 mg BID oral). Moreover, the “Hot Flashes Frequency (mean)” value in test [3] (setting [7]) is on record as 11.84; in test [3] (Week 4, 90 mg BID oral), 1.35; in test [3] (Week 12, 90 mg BID oral), 0.79. Also, the Ki in test [4] (Table 2, 5 nM 3H-SB222200, CHO membranes, read-out: Competitive binding assay with human NK-3 receptor hNK-3 (Ki)) is 0.023 µM; in test [4] (Table 3 (selectivity table), read-out: hNK-3 (Ki)), 0.023 µM; in test [5], greater than 30 µM.
